Assay results from patent US9668960B2, “Methods useful in studying or modulating skin or hair pigmentation, plant extracts for use in compositions and cosmetic care method” (L V M H RECHERCHE, priority 2008, dated 2017).

How the values were obtained:
tyrosinase [1] = assay: DOPA oxidase detection for tyrosinase activity in FM55 melanoma; format: cell-based, human; conditions: 72 h; for Changes in tyrosinase activity, FM55 % change: same doses as E5, vs basal
Procedure: The cells were prepared for SDS-PAGE and transblotted onto PVDF membranes. 70 μg of un-reduced protein extract without boiling was pipetted into the appropriate wells of 8% SDS-PAGE gels. […] The L-DOPA reaction was stopped by washing the membrane in distilled water and the membrane was scanned. […] In addition IBMX and NH4Cl (positive melanocytic modulators) and niacinamide (negative modulator) were used as controls. […] Controls: Melanocytic modulators: IBMX (100 μM), NH4Cl (100 μM), and niacinamide (10 μM.). (A) Protein extracts were electroblotted and membranes stained with L-DOPA for the estimation of tyrosinase activity. (B) Densitometric scanning of band intensities and values were expressed as the fold increase compared to unstimulated control levels. Means are ±SEM of 3 independent experiments with *P<0.05, **P<0.01, ***P<0.001.

FM55 melanoma cells = assay: Melanin assay (melanogenesis) in moderately-pigmented FM55 melanoma; format: cell-based, human; conditions: 72 h; for Changes in melanin levels, FM55 % change: L-18 0.001%, L-19 1%, L-20 0.5%, L-21 10 μg/ml, L-22 1%, L-23 0.05 μg/ml, IBMX 100 μM, NH4Cl 100 μM, niacinamide 10 μM, vs basal; for Melanin content, FM55 (pg/cell): same doses as E3, basal 9.92
Procedure: Cells were then washed 3-times with sterile PBS and supplemented with 350 μl of either fresh serum-free RPMI medium (melanoma cells) or starved serum-free and BPE-free melanocyte medium (EM) and incubated at 37° C. and 5% CO2 for 24 h. Cells were then washed with sterile PBS 3-times and incubated with IBMX 1×10^-4 M at 37° C. and 5% CO2 for 12, 24, and 72 h. Cells were then gently washed 3-times with sterile PBS and fixed in ice-cold methanol for 10 minutes at -20° C. Slides were stored at -20° C. until immunocytochemistry was performed. […] The melanin standards were pipetted into a 96 well plate to produce a calibration curve for the assessment of melanin content in the test samples. 400 μl of 1 M NaOH was added to each cell pellet and dissolved on a heat block (100° C.) for 15 minutes. The pellets were vortexed vigorously and the solubilized pellet was pipetted into the same 96-well plate. The optical densities of the sample were read at […] on a DYNEX REVELATION 4.02 program. Melanin content of each test sample was read from the calibration curve. […] In addition IBMX and NH4Cl (positive melanocytic modulators) and niacinamide (negative modulator) were used as controls. […] Controls: Melanocytic modulators: IBMX (100 μM), NH4Cl (100 μM), and niacinamide (10 μM). (A) Melanin content was determined spectrophotometrically (475 nm) after sodium hydroxide solubilisation. […] (B). Results were expressed as the change in melanin content (pg/cell) compared to unstimulated control levels. Means are ±SEM of 3 independent experiments with *P<0.05, **P<0.01, ***P<0.001.

tyrosinase [2] = assay: DOPA oxidase detection for tyrosinase activity in pigmented normal human melanocytes; format: cell-based; conditions: 72 h; for Changes in tyrosinase activity, F52 EMc % change / % Change in EM Tyrosinase Activity vs. Basal EM level (i.e. 0), EM: L-18 0.001%, L-23 0.05 μg/ml, IBMX 100 μM, niacinamide 10 μM; for Changes in tyrosinase activity, F52 EMc % change: L-19 1%, L-20 0.5%, L-21 10 μg/ml, L-22 1%, NH4Cl 100 μM, vs basal; for % Change in EM Tyrosinase Activity vs. Basal EM level (i.e. 0), EM: EM monoculture (F52)
Procedure: The cells were prepared for SDS-PAGE and transblotted onto PVDF membranes. 70 μg of un-reduced protein extract without boiling was pipetted into the appropriate wells of 8% SDS-PAGE gels. […] The L-DOPA reaction was stopped by washing the membrane in distilled water and the membrane was scanned. […] In addition IBMX and NH4Cl (positive melanocytic modulators) and niacinamide (negative modulator) were used as controls. […] Normal human epidermal melanocytes (Female-52; p5) were treated for 72 h with L-18 (0.001%), L-19 (1%), L-20 (0.5%), L-21 (10 μg/ml), LVMH-22 (1%) and L-23 (0.05 μg/ml). Controls: Melanocytic modulators: IBMX (100 μM), NH4Cl (100 μM), and niacinamide (10 μM). (A) Protein extracts were electroblotted and membranes stained with L-DOPA for the estimation of tyrosinase activity.

Myo-X = Myo-X protein expression by Western blotting in normal human melanocytes; format: cell-based; conditions: EM (F39), 12 h
Procedure: Western blot analysis: EMc in a confluent T225 flask were trypsinised and seeded into T25 flask with full medium and allowed to attach overnight. 24 h before treatment the medium was replaced with starved medium for 24 h. Cells were washed 3-times with sterile PBS, and incubated in starved medium alone, or L-18 (0.001%), L-19 (1%), L-20 (0.5%), L-21 (10 μg/ml), L-22 (1%) and L-23 (0.05 μg/ml) for 12 and 72 h. Controls included IBMX (100 μM) and niacinamide (10 μM).
40 μg of total protein from each cell extract was electrophoresed in reducing SDS-8%-PAGE and blotted on PVDF membranes (Millipore Corporation, Bedford, Mass.). […]
After extensive washes the blots were incubated with horseradish peroxidise conjugated secondary antibodies for 2 h. […] The chemiluminescent signal was detected by exposing the blot strips to Kodak XRA X-ray film (Kodak, UK) at various exposure times, followed by development in developing solution (Kodak, UK) until bands appeared, rinsed in tap water, fixed in the fixer (Kodak, UK) until the film turned blue, then rinsed with tap water and allowed to dry. […]
(A) Cell extracts were analyzed by Western blotting using anti-Myo-X and anti-β-actin as a loading control.
(B) Densitometric analysis of Myo-X and actin band intensities expressed as percentage change compared to unstimulated controls. […]

| Compound | Changes in tyrosinase activity, FM55 % change (tyrosinase [1]) | Changes in melanin levels, FM55 % change (FM55 melanoma cells) | Melanin content, FM55 (pg/cell) (FM55 melanoma cells) | Changes in tyrosinase activity, F52 EMc % change (tyrosinase [2]) | % Change in EM Tyrosinase Activity vs. Basal EM level (i.e. 0), EM (tyrosinase [2]) | Myo-X expression reduced by (Myo-X; niacinamide 10 μM) | effect on tyrosinase (dopa oxidase) activity compared with basal levels (tyrosinase [1]; FM55 melanoma cells, doses as E5) | effect on melanin content compared with basal levels (FM55 melanoma cells; FM55 melanoma cells, doses as E3) | effect on tyrosinase (dopa oxidase) activity compared with basal levels (tyrosinase [2]; normal melanocytes (EM), doses as E5) | increase in Myo-10 expression, fold versus untreated controls (Myo-X; IBMX 100 μM) |
| --- | --- | --- | --- | --- | --- | --- | --- | --- | --- | --- |
| NC(=O)c1cccnc1 [niacinamide] | −3.31% | −5.94% | (9.33) pg/cell | −4.58% | −2.12% | 60% | – | – | – | – |
| CC(C)Cn1c(=O)n(C)c(=O)c2[nH]cnc21 [IBMX] | +141.72% | +250.8% | (34.8) pg/cell | +72.47% | +56.51% | – | dramatic increase in dopa oxidase activity of tyrosinase | visible increases in melanogenesis | dramatic increase in dopa oxidase activity of tyrosinase | 3 fold |
